Assay results reported in ChEMBL document CHEMBL6178013, “Ferroptosis of Cancer Cells via Tubulin Degradation and Mitochondrial Dysfunction: A Novel Mechanism of Anticancer Effect for Small-Molecule Anion Transporters” (J Med Chem, 2025).
Calls of active or inactive are those of the source. The rule behind the calls is not given here.

Assays:
Chloride [1] = test: Binding affinity to chloride anions assessed as anionophoric activity in egg-yolk L-alpha-phosphatidylcholine liposome model measured per lipid by pyranine-based fluorescent assay
Chloride [2] = test: Binding affinity to chloride anions using tetrabutylammonium chloride salt assessed as association constant by 1H NMR spectroscopy
Chloride [3] = test: Binding affinity to chloride anions assessed as fold increase in anionophoric activity in egg-yolk L-alpha-phosphatidylcholine liposome model measured per lipid by pyranine-based fluorescent assay relative to m-Bimbe
Liposome = test: Disruption of egg-yolk L-alpha-phosphatidylcholine liposome model membrane assessed as calcein leakage by fluorescence based assay; assay type: subcellular
Chloride [4] = test: Binding affinity to chloride anions assessed as chloride efflux in egg-yolk L-alpha-phosphatidylcholine liposome model harboring intravesicular RbCl/extravesicular NaNO3
Chloride [5] = test: Binding affinity to chloride anions assessed as chloride efflux in egg-yolk L-alpha-phosphatidylcholine liposome model harboring intravesicular NaCl/extravesicular NaNO3
Chloride [6] = test: Binding affinity to chloride anions assessed as transport of chloride anions across bulky nitrobenzene membrane in U-shaped tube harboring NaCl in donor phase and NaNO3 in receiving phase at 1 mM measured for 12 hrs by chloride ion selective electrode technique
Chloride [7] = test: Binding affinity to chloride anions in human HeLa cells assessed as increase in green fluorescence in cytoplasm at 5 uM incubated for 6 hrs by AO staining based analysis; assay type: cell-based
Chloride [8] = test: Binding affinity to chloride anions in human HeLa cells assessed as increase in chloride influx at 1 uM measured after 30 to 60 mins by flow cytometry; assay type: cell-based; conditions: time 30-60 min
A549 = test: Cytotoxicity against human A549 cells incubated for 48 hrs by MTT assay; assay type: functional, cell-based; conditions: A549, 48 h
HepG2 = test: Cytotoxicity against human HepG2 cells incubated for 48 hrs by MTT assay; assay type: functional, cell-based; conditions: HepG2, 48 h
HeLa [9] = test: Cytotoxicity against human HeLa cells assessed as decrease in cell viability at 0.01 to 10 uM pretreated with Fer-1 followed by compound addition by MTT assay; assay type: functional, cell-based; conditions: dose 0.01-10 µM
HeLa [10] = test: Cytotoxicity against human HeLa cells assessed as decrease in cell viability at 0.01 to 10 uM pretreated with Z-VAD-FMK followed by compound addition by MTT assay; assay type: functional, cell-based; conditions: dose 0.01-10 µM
HeLa [11] = test: Cytotoxicity against human HeLa cells assessed as decrease in cell viability at 0.01 to 10 uM pretreated with 3-MA followed by compound addition by MTT assay; assay type: functional, cell-based; conditions: dose 0.01-10 µM
[12] = biological target: T1, Tubulin alpha (Homo sapiens) (UniProt P0DPH7+P68366+Q71U36+P68363+Q9BQE3+Q6PEY2+A6NHL2+Q9NY65); test: Induction of alpha-tubulin degradation in human HeLa cells incubated for 48 hrs by immunoblotting analysis; assay type: cell-based; conditions: dose 0.1-1 µM
[13] = biological target: T1, Tubulin alpha (Homo sapiens); test: Induction of alpha-tubulin degradation in human HeLa cells at 1 uM preincubated with MG132 followed by compound addition measured after 24 hrs by immunoblotting analysis; assay type: cell-based
HeLa [14] = test: Induction of mitochondrial membrane permeability in human HeLa cells assessed as green fluorescence at 0.1 uM incubated for 24 hrs by JC-1 staining based analysis (reference value: 1.5 %); assay type: functional
HeLa [15] = test: Induction of lipid peroxidation in human HeLa cells assessed as increase in ROS generation incubated for 24 hrs by DCFH-DA probe based fluorescence microscopy; assay type: functional, cell-based; conditions: dose 0.1-1 µM
HeLa [16] = test: Induction of ferroptosis in human HeLa cells assessed as increase in Bax level at 0.1 to 1 uM incubated for 24 hrs by immunoblotting analysis; assay type: functional, cell-based; conditions: dose 0.1-1 µM
HeLa [17] = test: Induction of cell cycle arrest in human HeLa cells assessed as accumulation of cells at S phase at 0.1 uM incubated for 24 hrs by PI staining based flow cytometry relative to control; assay type: functional
HeLa [18] = test: Induction of cell cycle arrest in human HeLa cells assessed as accumulation of cells at S phase at 1 uM incubated for 24 hrs by PI staining based flow cytometry relative to control; assay type: functional
[19] = AUC (0 to infinity) in male CD-1 mouse at 1 mg/kg, iv measured for 0.083 to 48 hrs by HPLC/MS/MS analysis; assay type: ADME, organism-based; conditions: in vivo, time 0.083-48 hrs
[20] = MRT (0 to t) in male CD-1 mouse at 1 mg/kg, iv measured for 0.083 to 48 hrs by HPLC/MS/MS analysis; assay type: ADME, organism-based; conditions: in vivo, time 0.083-48 hrs
[21] = MRT (0 to infinity) in male CD-1 mouse at 1 mg/kg, iv measured for 0.083 to 48 hrs by HPLC/MS/MS analysis; assay type: ADME, organism-based; conditions: in vivo, time 0.083-48 hrs
[22] = Half life in male CD-1 mouse at 1 mg/kg, iv measured for 0.083 to 48 hrs by HPLC/MS/MS analysis; assay type: ADME, organism-based; conditions: in vivo, time 0.083-48 hrs
[23] = MRT (0 to infinity) in male CD-1 mouse at 1 mg/kg, ip measured for 0.083 to 48 hrs by HPLC/MS/MS analysis; assay type: ADME, organism-based; conditions: in vivo, time 0.083-48 hrs
HeLa [24] = test: Antitumor activity against human HeLa cells xenografted in male Balb/C nude mouse assessed as average tumor size at 10 mg/kg, ip administered on every 2 days measured after 18 days (reference value: 1995.1 mm3); assay type: functional; conditions: time 18 day
HeLa [25] = test: Antitumor activity against human HeLa cells xenografted in male Balb/C nude mouse assessed as nuclear fragmentation at 10 to 20 mg/kg, ip administered on every 2 days measured after 18 days by H and E staining based analysis; assay type: functional, organism-based; conditions: dose 10-20 mg/kg, time 18.0 day
[26] = Toxicity in male Balb/C nude mouse xenografted with human HeLa cells assessed as abnormalities in heart at 10 to 20 mg/kg, ip administered on every 2 days measured after 18 days by H and E staining based analysis; assay type: organism-based; conditions: in vivo, 432 h, dose 10-20 mg/kg, time 18 day
[27] = Toxicity in male Balb/C nude mouse xenografted with human HeLa cells assessed as abnormalities in liver at 10 to 20 mg/kg, ip administered on every 2 days measured after 18 days by H and E staining based analysis; assay type: organism-based; conditions: in vivo, 432 h, dose 10-20 mg/kg, time 18 day
[28] = Toxicity in male Balb/C nude mouse xenografted with human HeLa cells assessed as abnormalities in spleen at 10 to 20 mg/kg, ip administered on every 2 days measured after 18 days by H and E staining based analysis; assay type: organism-based; conditions: in vivo, 432 h, dose 10-20 mg/kg, time 18 day
[29] = Toxicity in male Balb/C nude mouse xenografted with human HeLa cells assessed as abnormalities in lung at 10 to 20 mg/kg, ip administered on every 2 days measured after 18 days by H and E staining based analysis; assay type: organism-based; conditions: in vivo, 432 h, dose 10-20 mg/kg, time 18 day
[30] = Toxicity in male Balb/C nude mouse xenografted with human HeLa cells assessed as abnormalities in kidney at 10 to 20 mg/kg, ip administered on every 2 days measured after 18 days by H and E staining based analysis; assay type: organism-based; conditions: in vivo, 432 h, dose 10-20 mg/kg, time 18 day
[31] = Drug concentration in plasma of C57BL/6 mouse at 5 mg/kg, iv measured after 4 hrs by HPLC/MS/MS analysis; assay type: ADME, organism-based
[32] = Drug concentration in brain of C57BL/6 mouse at 5 mg/kg, iv measured after 4 hrs by HPLC/MS/MS analysis; assay type: ADME, organism-based; conditions: read-out: Ct
[33] = Toxicity in male Balb/C nude mouse xenografted with human HeLa cells assessed as abnormalities in brain at 10 to 20 mg/kg, ip administered on every 2 days measured after 18 days by H and E staining based analysis; assay type: organism-based; conditions: in vivo, 432 h, dose 10-20 mg/kg, time 18 day

## Fc1cc(-c2nc3c(C(F)(F)F)cc(C(F)(F)F)cc3[nH]2)cc(-c2nc3c(C(F)(F)F)cc(C(F)(F)F)cc3[nH]2)c1
Chloride [1]
  EC50: 4.16 10^-2mol%
Chloride [2]
  Ka: 1.48 10^3/M
Chloride [3]
  fold change (FC): 2.32 10^2No_unit
Liposome
  Activity: inactive
Chloride [4]
  Activity: Active
Chloride [5]
  Activity: Active
Chloride [6]
  Activity: Active
Chloride [7]
  Activity: Active; The Result Indicates That Compound Basify Acidic Organelles
Chloride [8]
  Activity: Active
A549
  IC50: 1.68 µM
HepG2
  IC50: 2.47 µM
HeLa [9]
  Activity: inactive
HeLa [10]
  Activity: Not active; Z-Vad-Fmk Exhibited Partial Protection For Cells
HeLa [11]
  Activity: Active
[12]
  Activity: Dose-dependent-effect
[13]
  Activity: inactive
HeLa [14]
  Activity: 9.5%
HeLa [15]
  Activity: Dose-dependent-effect
HeLa [16]
  Activity: Active
HeLa [17]
  Activity: 22%
HeLa [18]
  Activity: 48%
[19]
  AUC(0-inf): 17800 ng·h/mL
[20]
  MRT last: 2.64 h
[21]
  MRT inf: 3.14 h
[22]
  half-life: 5.11 h
[23]
  MRT inf: 14.8 h
HeLa [24]
  Activity: 850.9 mm3
HeLa [25]
  Activity: Active
[26]
  Activity: Non-toxic
[27]
  Activity: Non-toxic
[28]
  Activity: Non-toxic
[29]
  Activity: Non-toxic
[30]
  Activity: Non-toxic
[31]
  concentration at 4 h: 99.2 µM
[32]
  concentration at 4 h: 1.3 µM
[33]
  Activity: Non-toxic
